# Measurements reported in the supplement of paper PMC11208160.
# Experiment: recombinant UMI read abundance after kanamycin selection (control-corrected) (log10(CPM+1)); higher = more efficient recombination; extreme values may be limits of the assay; sequences stand for … in AGTGCAGAGAAAATCGGCCAGTTTTCTCTGCCTGCAGTCCGCATGCCGTGGGACCCCTTGGGTTCTAACCTGTTGCCTAGATTTATGCAGCGGACTGCCTTTCTCCCAAAGTGATAAACCGG…AGGTTGGTTTCACT; site = the 11-nt donor
# Summary of the method: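 Sequenced counts of recombinant UMIs were turned into CPM, averaged across replicates and scaled with control-derived factors. The reported figure is log10(CPM+1). Those UMIs, each 12 nt long, tagged donor and donor-binding-loop pairs on a plasmid with a promoterless kanamycin gene, screened as a pool in Escherichia coli with IPTG (0.07 mM) plus kanamycin or without selection.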
# 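Also: IS621 bridge recombinase in Escherichia coli cells against a fixed T5 target plasmid.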
row,Sequence,recombinant UMI read abundance (log10)
1,AGAAAGGCATGGACCGGTTTTCCCGGTAATCCGTATTTGCT (site AGAATGGCTAG),0
2,AATTTGGCATGGACCGGTTTTCCCGGTAATCCGTATTTGTG (site CATTTGGCTCA),0.00721
3,TAATGCGCATGGACCGGTTTTCCCGGTAATCCGTATTTGGG (site TAATGCGCTCC),0
4,CAATTCACATGGACCGGTTTTCCCGGTAATCCGTATTTGGG (site CAAATCACTCC),0.839
5,GAATGGTCATGGACCGGTTTTCCCGGTAATCCGTATTTGCA (site GAATGGGCTTG),0.00395
6,TGGCCGGCATGGACCGGTTTTCCCGGTAATCCGTATTTGGC (site TGGCCTGCTGC),0
7,CTACTCACATGGACCGGTTTTCCCGGTAATCCGTATTTGGG (site CTACTCACTCC),0.286
8,CGTAGATCATGGACCGGTTTTCCCGGTAATCCGTATTTGCA (site CGTAGATCTTG),2.44
9,CATGTAACATGGACCGGTTTTCCCGGTAATCCGTATTTGCT (site GATGTAACTAG),0.28
10,AGGGAGACATGGACCGGTTTTCCCGGTAATCCGTATTTGCA (site AGGCAGACTTG),0.473
11,CCGCTTACATGGACCGGTTTTCCCGGTAATCCGTATTTGCT (site CCGCTTACTAG),1.48
12,GGTACCTCATGGACCGGTTTTCCCGGTAATCCGTATTTGTT (site GGTACCTCTAA),0.187
13,ATTTCCACATGGACCGGTTTTCCCGGTAATCCGTATTTGTC (site ATTTCCACTGA),0.636
14,CTATCGACATGGACCGGTTTTCCCGGTAATCCGTATTTGTT (site CGATCGACTAA),0.0084
15,GGAGGCCCATGGACCGGTTTTCCCGGTAATCCGTATTTGCC (site GGAGGCCCTGG),0
16,TAAAGTTCATGGACCGGTTTTCCCGGTAATCCGTATTTGTA (site TAAAGTTCTTA),1.59
17,ATCCGTCCATGGACCGGTTTTCCCGGTAATCCGTATTTGAT (site ACCCGTCCTAT),0.0678
18,AATACTTCATGGACCGGTTTTCCCGGTAATCCGTATTTGAG (site AATACTTCTCT),1.6
19,ATGCATGCATGGACCGGTTTTCCCGGTAATCCGTATTTGGT (site GTGCATGCTAC),0.323
20,CTACCAACATGGACCGGTTTTCCCGGTAATCCGTATTTGGA (site CTACAAACTTC),0
21,CGACCCGCATGGACCGGTTTTCCCGGTAATCCGTATTTGCG (site CGACCCGCTCG),0.0234
22,ATTGACACATGGACCGGTTTTCCCGGTAATCCGTATTTGAC (site ATTGACACTGT),2.61
23,GGCAATCCATGGACCGGTTTTCCCGGTAATCCGTATTTGCA (site GGCAATCCTTA),0.227
24,TGTTCCCCATGGACCGGTTTTCCCGGTAATCCGTATTTGTA (site TGTCCCCCTTA),0.136
25,CGATTATCATGGACCGGTTTTCCCGGTAATCCGTATTTGCA (site CGATCATCTAG),0

row,Sequence,recombinant UMI read abundance (log10)
1,GAAGGTTCATGGACCGGTTTTCCCGGTAATCCGTATTTGTT (site GAAGTTTCTAA),0
2,ACACATCCATGGACCGGTTTTCCCGGTAATCCGTATTTGAC (site ACGCATCCTGT),0
3,CATTTGGCATGGACCGGTTTTCCCGGTAATCCGTATTTGTG (site CATTTGGCTCA),0.552
4,TCCATATCATGGACCGGTTTTCCCGGTAATCCGTATTTGTC (site CCCATATCTGA),0
5,CGATCTACATGGACCGGTTTTCCCGGTAATCCGTATTTGTT (site CGATCTACTAA),0.246
6,TAGGAATCATGGACCGGTTTTCCCGGTAATCCGTATTTGCG (site TAGGAAGCTCG),0.419
7,CAATTCTCATGGACCGGTTTTCCCGGTAATCCGTATTTGCT (site CAATTCGCTAG),0
8,AGGAAGACATGGACCGGTTTTCCCGGTAATCCGTATTTGGT (site AGGAAGACTTG),0
9,GCGAAAACATGGACCGGTTTTCCCGGTAATCCGTATTTGGT (site GCGAAAACTAT),0
10,GAACATTCATGGACCGGTTTTCCCGGTAATCCGTATTTGTT (site GAAGATTCTAA),0
11,TAGCCTTCATGGACCGGTTTTCCCGGTAATCCGTATTTGGT (site TAGCCATCTAC),0.00583
12,GTCGTATCATGGACCGGTTTTCCCGGTAATCCGTATTTGTC (site GTCGTATCTGA),2.7
13,GTTGCTCCATGGACCGGTTTTCCCGGTAATCCGTATTTGGT (site GTTGTTCCTAC),0.0159
14,ACACATCCATGGACCGGTTTTCCCGGTAATCCGTATTTGAC (site ACACATTCTGT),0.87
15,GAGGGGCCATGGACCGGTTTTCCCGGTAATCCGTATTTGGC (site GAGGGGCCTGC),0
16,GTATGCACATGGACCGGTTTTCCCGGTAATCCGTATTTGTA (site GTATGCACTTG),1.71
17,TATACCCCATGGACCGGTTTTCCCGGTAATCCGTATTTGAC (site TATACCCCTGT),1.5
18,TGTTACCCATGGACCGGTTTTCCCGGTAATCCGTATTTGTA (site TGTTACCCTTA),0.0142
19,GCGACAACATGGACCGGTTTTCCCGGTAATCCGTATTTGCT (site GCGAAAACTAG),0
20,CGGCTACCATGGACCGGTTTTCCCGGTAATCCGTATTTGCT (site CCGCTACCTAG),0
21,TATTTGGCATGGACCGGTTTTCCCGGTAATCCGTATTTGCG (site TATTTGGCTCA),0.0189
22,ACAGGATCATGGACCGGTTTTCCCGGTAATCCGTATTTGCA (site ACAGTATCTTG),2.38
23,TACTTTCCATGGACCGGTTTTCCCGGTAATCCGTATTTGCT (site TACTTTCCTAG),0.537
24,CGTTTGGCATGGACCGGTTTTCCCGGTAATCCGTATTTGAT (site CGTTTGGCTAT),2.22
25,GCTCGCCCATGGACCGGTTTTCCCGGTAATCCGTATTTGAT (site GCTTGCCCTAT),0.00792

row,Sequence,recombinant UMI read abundance (log10)
1,ATCTAAGCATGGACCGGTTTTCCCGGTAATCCGTATTTGAG (site ATCCAAGCTCT),1.93
2,AGCTCACCATGGACCGGTTTTCCCGGTAATCCGTATTTGGG (site AGCTCAACTCC),0.0175
3,GGTGCGTCATGGACCGGTTTTCCCGGTAATCCGTATTTGTT (site GGTTCGTCTAA),0.0103
4,ATTGAGACATGGACCGGTTTTCCCGGTAATCCGTATTTGAT (site ATTGAGACTAC),0.217
5,CTAAACTCATGGACCGGTTTTCCCGGTAATCCGTATTTGAA (site CTAAACTCTTT),3.08
6,GGAGATTCATGGACCGGTTTTCCCGGTAATCCGTATTTGAC (site GGAGATTCTGT),0
7,GTGCTTGCATGGACCGGTTTTCCCGGTAATCCGTATTTGGT (site GTGCTTGCTAC),1.07
8,GCGAAGCCATGGACCGGTTTTCCCGGTAATCCGTATTTGTG (site GCGAAGCCTCA),0.643
9,CACGCCTCATGGACCGGTTTTCCCGGTAATCCGTATTTGGC (site CACGCCTCTGC),2.52
10,TGCTCAGCATGGACCGGTTTTCCCGGTAATCCGTATTTGGG (site TGCTCAGCTCC),0.00921
11,GTTGCTCCATGGACCGGTTTTCCCGGTAATCCGTATTTGGT (site GTTGATCCTAC),0
12,TCATACGCATGGACCGGTTTTCCCGGTAATCCGTATTTGCA (site TCATACCCTTG),0.169
13,ATGTAGGCATGGACCGGTTTTCCCGGTAATCCGTATTTGTC (site ATGTAGGCTGA),2.72
14,GATTGGGCATGGACCGGTTTTCCCGGTAATCCGTATTTGAC (site GATTGGGCTGT),1.51
15,GGATAGACATGGACCGGTTTTCCCGGTAATCCGTATTTGCC (site GGATAGACTCG),0.799
16,TTGGTGGCATGGACCGGTTTTCCCGGTAATCCGTATTTGTC (site TTGGTGGCTGA),1.5
17,CCAAGTGCATGGACCGGTTTTCCCGGTAATCCGTATTTGAT (site CCAGGTGCTAT),0.02
18,GTGAAGACATGGACCGGTTTTCCCGGTAATCCGTATTTGCA (site GTGAAGACTTG),2.72
19,GCCAATTCATGGACCGGTTTTCCCGGTAATCCGTATTTGGG (site GCCAATTCTCC),0.183
20,CCCTCCTCATGGACCGGTTTTCCCGGTAATCCGTATTTGGG (site CCCTACTCTCC),0.0129
21,CAACTGACATGGACCGGTTTTCCCGGTAATCCGTATTTGCA (site CAACTGACTTG),2.73
22,CCTATAGCATGGACCGGTTTTCCCGGTAATCCGTATTTGAT (site CCTAGAGCTAT),0.0174
23,CGCTTGGCATGGACCGGTTTTCCCGGTAATCCGTATTTGCT (site CGCTTGGCTAG),0
24,TATGAATCATGGACCGGTTTTCCCGGTAATCCGTATTTGCG (site TAAGAATCTCG),1.85
25,CACTTGGCATGGACCGGTTTTCCCGGTAATCCGTATTTGCA (site CACTTGGCTTT),0.0216
